Assays:
IEC junction = assay: Transmission electron microscopy of intestines, ruthenium red; format: in vivo, mouse; conditions: day 7 and day 21; allo-BMT recipients, intragastric butyrate
Excerpt: Samples were stained as previously described (Soler, A. P. et al. Increased tight junctional permeability is associated with the development of colon cancer. Carcinogenesis 20, 1425-1431 (1999)). Briefly, the intestines from mice that received butyrate or vehicle treatment were harvested 7 days and 21 days following syngeneic and allogeneic BMT and flushed with 0.1 M Sorensen's phosphate buffer (pH 7.4) to remove luminal contents using a 20G needle. The intestines were next gently flushed with 0.1% ruthenium red (RR) containing 2.5% glutaraldehyde fixative in Sorensen's buffer and immediately placed in a dish containing the stain/fixative. Cross sections were immediately sliced (2 mm wide) from the duodenum, jejunum, and illium. The tissue was then rinsed three times with Sorensen's buffer, containing 0.1 percent RR and post-fixed for one hour in one percent osmium tetroxide in the same buffer containing RR. […] Images were recorded digitally using a Hamamatsu ORCA-HR digital camera system operated using AMT software (Advanced Microscopy Techniques Corp., Danvers, Mass.).
Intestinal permeability after allo-BMT was assessed by intragastric administration of FITC-dextran, a non-metabolized carbohydrate (Hanash, A. M. et al. Interleukin-22 protects intestinal stem cells from immune-mediated tissue damage and regulates sensitivity to graft versus host disease. Immunity 37, 339-350 (2012)).

[1] = tested on: parent (C57BL/6J) into F1 (B6D2F1) BMT recipients; assay: Non-irradiated parent into F1 BMT model with butyrate; format: in vivo, mouse; conditions: intragastric butyrate
primary CD326+ IECs = assay: Chromatin immunoprecipitation (acetylated histone-H4) of primary CD326+ IECs; format: cell-based, mouse
Description: Primary CD326+ IECs were seeded on gelatin (Cell Biologics; Chicago, Ill.) coated cell culture dishes (100 mm) overnight followed by treatment with butyrate 1 mM for 24 hours. Cells were harvested and used for ChIP analysis using EZ-Magna ChIP kit from EMD Millipore (Billerica, Mass.) following the manufacturers instructions. Briefly, cells were cross-linked with 1% formaldehyde and extracted chromatin was sonicated using a Bioruptor Pico by Diagenode (Denville, N.J.) to yield DNA fragments predominately in the range of 200-1000 bp. Sonicated lysates were immunoprecipitated (IP) utilizing ChIP grade specific antibodies purchased from EMD Millipore for acetylated histone-H4 and RNA Pol II or IgG control antibody. De-crosslinked DNA was next examined by qPCR using primers targeting the promoter region of the target gene BCL-B (Bcl2110) (Forward: […] (SEQ ID NO:50); Reverse: […] (SEQ ID NO:51)), Slc5a8 (Forward: […] (SEQ ID NO:52); Reverse: […] (SEQ ID NO:53), and JAM (F11r) (Forward: […] (SEQ ID NO:54; Reverse: […] (SEQ ID NO:55)). IP efficiency of all samples was verified by qPCR analysis of the promoter region of Gapdh (Forward: […] (SEQ ID NO:56); Reverse: […] (SEQ ID NO:57)). Data analysis was determined as percent of input utilizing the equations: ΔCt[normalized ChIP]=(Ct[ChIP]−(Ct[Input]−[…])) and % Input=2(−ΔCt [normalized ChIP]).

HDAC = HDAC enzymatic activity in donor T cells from recipient spleen; format: in vivo, mouse; conditions: butyrate vs vehicle treated allogeneic animals
Description: To further determine whether the salutary effects of local treatment with butyrate on GI GVHD were dependent on donor Treg cells, a BMT was performed utilizing the same HC mismatched BMT model in which C57BL/6J (H-2b) cells are transferred to Balb/c (H-2d) mice. T cell-depleted (TCD) bone marrow was transplanted and purified CD4+CD25− T cells from donors. Vehicle or butyrate was administered to the recipients daily for 1 week, then every other day thereafter as above. […]. J. Exp. Med. 204, 57-63 (2007); Lahl, K. & Sparwasser, T. In vivo depletion of FoxP3+ Tregs using the DEREG mouse model. […]. The Treg depleted T cells were then used as donor cells in the major MHC mismatch model used above. […] To further examine whether the local administration of butyrate impacted donor T cells directly, the HDAC and HAT enzymatic activity was determined in donor T cells harvested from the recipient animals. Both the HDAC activity or HAT activity in the donor T cells harvested from the recipient spleen were similar between butyrate and vehicle treated allogeneic animals.

CCCC(=O)[O-].[Na+] [butyrate, sodium butyrate]
integrity of the IEC junction (TEM) (IEC junction): preserved
survival [1]: improved survival
weight loss [1]: Significantly less weight loss
association of acetylated histone H4 in the promoter region of Slc5a8 (primary CD326+ IECs; IECs (CD326+) treated with butyrate 1 mM 24 hours): increased association
acetylation of histone H4 at the promoter region of Bcl2110 (primary CD326+ IECs; butyrate treated IECs (CD326+)): associated with the promoter region
acetylation of histone H4 at the promoter region of F11r (primary CD326+ IECs; butyrate treated IECs (CD326+)): associated with the promoter region
HDAC activity in donor T cells (HDAC): similar
